Experimental data from paper PMC7427800 (Scientific Reports, 2020).
Like-named read-outs stand apart in the source and are kept apart here.

Experiments:
human MOR [1] = target: T1, human MOR (Homo sapiens, UniProt P35372); assay: biochemical; type: biochemical; design: host or cells: CHO (CHO-hMOR), cell membranes; settings: for agonist character at the MOR: CHO-hMOR; for G protein activation %stim: percentage stimulation relative to DAMGO
human DOR = target: T2, human DOR (Homo sapiens, UniProt P41143); type: binding
T2 construct: host or cells: CHO (CHO-hDOR), cell membranes

[2] = system: acetic acid-induced writhing; assay: acetic acid-induced writhing test; type: in vivo, mice; settings: for reduction in the number of writhes / times less effective than morphine (0.5 mg/kg) at equianalgesic doses: mice; for reduction in the number of writhes: 30 min after administration; for antiwrithing response after naltrexone pretreatment: naltrexone 1 mg/kg s.c. 10 min before agonist; for times less effective than morphine (0.5 mg/kg) at equianalgesic doses: writhing assay, s.c.
Protocol: Male CD1 mice (30–35 g, 7–8 weeks old) were obtained from the Center of Biomodels and Experimental Medicine (CBEM) (Innsbruck, Austria). Mice were group-housed in a temperature-controlled room with a 12 h light/dark cycle and with free access to food and water. All animal studies were conducted in accordance with ethical guidelines and animal welfare standards according to Austrian regulations for animal research and were approved by the Committee of Animal Care of the Austrian Federal Ministry of Science and Research. Test compounds or vehicle were administered by s.c. route in a volume of 10 µL/1 g of body weight.
Writhing was induced in mice by intraperitoneal (i.p.) injection of a 0.6% acetic acid aqueous solution[26]. Drugs or control (vehicle) were s.c. administered, and after 25 min (5 min prior to testing), each animal received i.p. acetic acid solution. Each mouse was placed in individual transparent Plexiglas chambers, and the number of writhes was counted during a 10 min observation period. […] For the antagonism study, naltrexone (1 mg/kg) was s.c. administered 10 min before the opioid agonist, and writhing as assessed as described above. Each experimental group included five to six animals.

human KOR = target: T3, human KOR (Homo sapiens, UniProt P41145); type: binding
T3 construct: host or cells: CHO (CHO-hKOR), cell membranes

human MOR [3] = target: T1, human MOR; type: cell-based; design: host or cells: U2OS (PathHunter U2OS-hMOR-βarrestin2); settings: PathHunter, U2OS-hMOR
human MOR [4] = target: T1, human MOR; assay: biochemical; type: binding; design: host or cells: CHO (CHO-hMOR), cell membranes
[5] = rat, in vivo; cited from earlier work
dopamine D1 receptor = system: dopamine D1 receptor; design: method as in PMID 18830156, PMID 30308941; settings: cell-based functional assays; cited from earlier work

T1 sequence (P35372 whole entry): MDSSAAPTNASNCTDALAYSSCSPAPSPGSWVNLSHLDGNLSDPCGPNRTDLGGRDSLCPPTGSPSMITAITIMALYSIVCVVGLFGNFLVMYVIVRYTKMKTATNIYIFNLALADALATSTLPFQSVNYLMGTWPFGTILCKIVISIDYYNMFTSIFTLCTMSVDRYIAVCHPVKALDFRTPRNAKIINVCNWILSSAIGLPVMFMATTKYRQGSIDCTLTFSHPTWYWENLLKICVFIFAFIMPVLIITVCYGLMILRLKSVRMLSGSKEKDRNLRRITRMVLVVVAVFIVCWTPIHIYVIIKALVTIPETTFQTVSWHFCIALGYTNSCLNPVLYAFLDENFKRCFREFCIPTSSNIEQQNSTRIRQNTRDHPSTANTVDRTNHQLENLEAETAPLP
T3 sequence (P41145 whole entry): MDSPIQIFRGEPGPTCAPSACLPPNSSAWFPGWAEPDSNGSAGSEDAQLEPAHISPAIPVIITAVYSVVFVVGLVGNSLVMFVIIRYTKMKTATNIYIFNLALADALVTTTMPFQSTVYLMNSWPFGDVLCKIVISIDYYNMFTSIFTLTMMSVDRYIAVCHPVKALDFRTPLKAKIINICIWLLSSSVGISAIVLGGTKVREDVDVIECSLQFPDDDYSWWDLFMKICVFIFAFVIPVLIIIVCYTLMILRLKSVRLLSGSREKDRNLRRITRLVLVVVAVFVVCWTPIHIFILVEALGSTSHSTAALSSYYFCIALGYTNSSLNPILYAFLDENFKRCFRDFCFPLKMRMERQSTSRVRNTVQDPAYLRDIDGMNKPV
T2 sequence (P41143 whole entry): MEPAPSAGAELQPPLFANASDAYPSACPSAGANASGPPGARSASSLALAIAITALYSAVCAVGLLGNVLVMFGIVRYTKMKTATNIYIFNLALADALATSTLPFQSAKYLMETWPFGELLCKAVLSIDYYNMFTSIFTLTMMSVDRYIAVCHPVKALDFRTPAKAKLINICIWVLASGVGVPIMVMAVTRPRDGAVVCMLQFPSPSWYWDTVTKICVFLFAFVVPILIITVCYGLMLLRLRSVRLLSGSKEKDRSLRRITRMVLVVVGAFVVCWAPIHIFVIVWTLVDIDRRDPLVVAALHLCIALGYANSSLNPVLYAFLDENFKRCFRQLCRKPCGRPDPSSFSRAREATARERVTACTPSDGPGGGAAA

Structure (SMILES) | EC50 (human MOR [1]) | agonist potency, times greater than corydaline (2) (human MOR [1]; [35S]GTPγS binding) | agonist potency, times less potent than DAMGO (human MOR [1]; [35S]GTPγS binding) | agonist character at the MOR (human MOR [1]; [35S]GTPγS binding) | G protein activation %stim (human MOR [1]; [35S]GTPγS binding) | specific binding to the human DOR (human DOR) | alterations in general behavior (locomotor activity, sedation) (mice, s.c., tested doses (5 mg/kg corydine, 10 mg/kg corydaline)) | reduction in the number of writhes ([2]; 5 mg/kg s.c.) | antiwrithing response after naltrexone pretreatment [2] | times less effective than morphine (0.5 mg/kg) at equianalgesic doses [2] | specific binding to the human KOR (human KOR) | β-arrestin2 recruitment upon activation of the MOR (human MOR [3]) | Ki (human MOR [4]) | blood–brain barrier crossing [5] | alterations in general behavior (locomotor activity, sedation) (mouse, in vivo) | reduction in the number of writhes ([2]; 10 mg/kg s.c.) | activity at the dopamine D1 receptor (dopamine D1 receptor) | β-arrestin2 recruitment %stim (human MOR [3]; relative to DAMGO, – denotes no measurable activity)
COc1cc2c3c(c1O)-c1c(ccc(OC)c1OC)C[C@@H]3N(C)CC2 [Corydine (1), corydine] | 510 ± 110 nM | about 3 times | 34 times | full agonists | 102 ± 6% | did not specifically bind | no major alterations in locomotor activity and no sedation | 51% | antagonized | ca. 10 times | did not specifically bind | failed to induce β-arrestin2 recruitment | 2820 ± 610 nM |  |  |  |  | 
COc1cc2c(cc1OC)C1C(C)c3ccc(OC)c(OC)c3CN1CC2 (centres unmarked) [Corydaline (2), corydaline] | 1500 ± 440 nM |  |  | full agonists | 104 ± 6% | did not specifically bind |  |  | antagonized | ~20 times | did not specifically bind | failed to induce β-arrestin2 recruitment | 1230 ± 290 nM | can effectively cross the blood–brain barrier | no major alterations in locomotor activity and no sedation | 59% | antagonist activity | 
C[C@@H](NC(=O)[C@@H](N)Cc1ccc(O)cc1)C(=O)NCC(=O)N(C)[C@@H](Cc1ccccc1)C(=O)NCCO [DAMGO, reference compound] |  |  |  |  | 100% |  |  |  |  |  |  | effectively recruited β-arrestin2 |  |  |  |  |  | 100%
